Where a SMILES comes first, the peptide text is derived from it. Bridges are numbered along the chain shown (N, C = ends). [ ]: non-standard residue; d: D form. The star is where a group is joined. Phe(4-COOH) = N[C@@H](Cc1ccc(C(=O)O)cc1)C(=O)O; X1 = O=C(COCC(=O)*)Nc1ccc(CCC(=O)N2CCC2=O)cc1; Nva = CCC[C@H](N)C(=O)O

One data set deals with T1, recombinant human VEGF165 (Homo sapiens, UniProt P15692).
T1 sequence (P15692 27-191 isoform P15692-4): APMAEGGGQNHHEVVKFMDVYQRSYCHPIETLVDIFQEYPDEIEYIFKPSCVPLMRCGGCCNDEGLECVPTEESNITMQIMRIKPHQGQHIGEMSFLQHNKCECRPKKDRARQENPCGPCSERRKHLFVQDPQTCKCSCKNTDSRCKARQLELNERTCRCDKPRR
The experiment in a line: VEGF peptide binding assay (competition ELISA, VEGF165 binding to coated VEGFR2/Fc).
Settings: not given
A digest of the protocol: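 VEGFR2/Fc was coated, and peptides (0.128–10,000 nM, N-acetyl, C-amide) were preincubated with 25 ng/ml human VEGF165 and added for 1 h at RT. Bound VEGF was detected with biotinylated anti-VEGF, streptavidin-HRP and TMB at OD450. IC50 came from sigmoid dose-response fits of OD450 versus concentration.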
(ELISA stands for enzyme-linked immunosorbent assay.)
By IC50 is commonly meant the midpoint of a concentration-inhibition curve. In the case of `CC[C@H](C)[C@@H]1NC(=O)[C@H](CC(=O)O)NC(=O)[C@@H](NC(=O)[C@H](CC(N)=O)NC(=O)[C@@H]2CCCN2C(=O)[C@H](CCC(=O)O)NC(=O)[C@@H](NC(C)=O)C(C)C)CSSC[C@@H](C(=O)N[C@@H](Cc2ccccc2)C(=O)N[C@@H](CCC(=O)O)C(=O)N[C@@H](CCCNC(=N)N)C(=O)N[C@@H](CC(C)C)C(=O)N[C@@H](Cc2ccc(O)cc2)C(=O)NCC(=O)N[C@@H](CC(C)C)C(N)=O)NC(=O)[C@H](CCC(=O)O)NC(=O)[C@H](Cc2c[nH]c3ccccc23)NC(=O)[C@H](C(C)C)NC(=O)[C@H](Cc2c[nH]c3ccccc23)NC(=O)[C@H](CCSC)NC(=O)[C@H](C(C)C)NC(=O)[C@H](Cc2c[nH]cn2)NC1=O` [Compound 72, VEPNCDIHVMWVWECFERLYGL] (Ac-VEPNCDIHVMWVWECFERLYGL-NH2; disulfide 5-15 (inferred)), the half-inhibitory concentration (IC50) worked out at 4.8 nM.

For the molecule `CC[C@H](C)[C@@H]1NC(=O)[C@H](CC(=O)O)NC(=O)[C@@H](NC(=O)[C@H](CC(N)=O)NC(=O)[C@@H]2CCCN2C(=O)[C@H](CCC(=O)O)NC(=O)[C@@H](NC(C)=O)C(C)C)CSSC[C@@H](C(=O)N[C@@H](Cc2ccccc2)C(=O)N[C@@H](CCC(=O)O)C(=O)N[C@@H](CCCNC(=N)N)C(=O)N[C@@H](CC(C)C)C(=O)N[C@@H](Cc2ccc(O)cc2)C(=O)NCC(=O)N[C@H](C(=O)N[C@@H](CCC(N)=O)C(N)=O)C(C)C)NC(=O)[C@H](CCC(=O)O)NC(=O)[C@H](Cc2c[nH]c3ccccc23)NC(=O)[C@H](C(C)C)NC(=O)[C@H](Cc2c[nH]c3ccccc23)NC(=O)[C@H](CCSC)NC(=O)[C@H](C(C)C)NC(=O)[C@H](Cc2c[nH]cn2)NC1=O` [Compound 74, VEPNCDIHVMWVWECFERLYGVQ] (Ac-VEPNCDIHVMWVWECFERLYGVQ-NH2; disulfide 5-15 (inferred)), the IC50 was 4 nM.

Take `CC[C@H](C)[C@@H]1NC(=O)[C@H](CC(=O)O)NC(=O)[C@@H](NC(=O)[C@H](CC(N)=O)NC(=O)[C@@H]2CCCN2C(=O)[C@H](CCC(=O)O)NC(=O)[C@@H](NC(C)=O)C(C)C)CSSC[C@@H](C(=O)N[C@@H](Cc2ccccc2)C(=O)N[C@@H](CCC(=O)O)C(=O)N[C@@H](CCCNC(=N)N)C(=O)N[C@@H](CC(C)C)C(=O)N[C@@H](Cc2ccc(O)cc2)C(=O)NCC(=O)N[C@@H](CC(C)C)C(=O)N[C@@H](CCC(=O)O)C(N)=O)NC(=O)[C@H](CCC(=O)O)NC(=O)[C@H](Cc2c[nH]c3ccccc23)NC(=O)[C@H](C(C)C)NC(=O)[C@H](Cc2c[nH]c3ccccc23)NC(=O)[C@H](CCSC)NC(=O)[C@H](C(C)C)NC(=O)[C@H](Cc2c[nH]cn2)NC1=O` [Compound 75, VEPNCDIHVMWVWECFERLYGLE] (Ac-VEPNCDIHVMWVWECFERLYGLE-NH2; disulfide 5-15 (inferred)): the IC50 is 3 nM.

Consider `CC[C@H](C)[C@@H]1NC(=O)[C@H](CC(=O)O)NC(=O)[C@@H](NC(=O)[C@H](CC(N)=O)NC(=O)[C@@H]2CCCN2C(=O)[C@H](CCC(=O)O)NC(=O)[C@@H](NC(C)=O)C(C)C)CSSC[C@@H](C(=O)N[C@@H](Cc2ccccc2)C(=O)N[C@@H](CCC(=O)O)C(=O)N[C@@H](CCCNC(=N)N)C(=O)N[C@@H](CC(C)C)C(=O)N[C@@H](Cc2ccc(O)cc2)C(=O)NCC(=O)N2CCC[C@H]2C(=O)N[C@@H](CC(C)C)C(N)=O)NC(=O)[C@H](CCC(=O)O)NC(=O)[C@H](Cc2c[nH]c3ccccc23)NC(=O)[C@H](C(C)C)NC(=O)[C@H](Cc2c[nH]c3ccccc23)NC(=O)[C@H](CCSC)NC(=O)[C@H](C(C)C)NC(=O)[C@H](Cc2c[nH]cn2)NC1=O` [Compound 76, VEPNCDIHVMWVWECFERLYGPL] (Ac-VEPNCDIHVMWVWECFERLYGPL-NH2; disulfide 5-15 (inferred)), for which the IC50 stood at 2.3 nM.

With `CC[C@H](C)[C@@H]1NC(=O)[C@H](CC(=O)O)NC(=O)[C@@H](NC(=O)[C@H](CC(N)=O)NC(=O)[C@@H]2CCCN2C(=O)[C@H](CCC(=O)O)NC(=O)[C@@H](NC(C)=O)C(C)C)CSSC[C@@H](C(=O)N[C@@H](Cc2ccccc2)C(=O)N[C@@H](CCC(=O)O)C(=O)N[C@@H](CCCNC(=N)N)C(=O)N[C@@H](CC(C)C)C(=O)N[C@@H](Cc2ccc(O)cc2)C(=O)NCC(=O)N2CCC[C@H]2C(=O)N[C@@H](Cc2ccccc2)C(N)=O)NC(=O)[C@H](CCC(=O)O)NC(=O)[C@H](Cc2c[nH]c3ccccc23)NC(=O)[C@H](C(C)C)NC(=O)[C@H](Cc2c[nH]c3ccccc23)NC(=O)[C@H](CCSC)NC(=O)[C@H](C(C)C)NC(=O)[C@H](Cc2c[nH]cn2)NC1=O` [Compound 77, VEPNCDIHVMWVWECFERLYGPF] (Ac-VEPNCDIHVMWVWECFERLYGPF-NH2; disulfide 5-15 (inferred)), the IC50 was 1.8 nM.

System in another data set: not listed separately
The experiment in a line: Mouse half-life (T 1/2) and screening half-life of Ang2 binding compounds. Format: in vivo, Swiss Webster mice. The settings on record: mouse, in vivo; Table 5, screening half life (in parentheses), shorter test period; read-out: T ½ (Sc) hours, screening half life. Here is the method:
For “screening” T ½, test compounds were intravenously administered into male Swiss Webster mice. Blood samples were taken from 4 mice per time point via retroorbital sinus bleed at the following time points: 0.08, 5, and 32 hours. Blood level of test compounds were determined by ELISA. The data were reported as the percentage of test compounds at 32 hours versus 5 min. Normal T ½ was calculated in a similar fashion, after undergoing additional data analysis using WinNonlin version 4.1 (Pharsight Corporation). The data was fit to a model based upon the shape of the curve (i.e. a bi-exponential decline will be fit to a two compartment model, etc.) The criteria for best fit (i.e. lowest % CV) was based on iterative re-weighted least squares.
As a reminder, the half-life is the time in which the quantity being followed falls by half. As for `CCC[C@H](NC(=O)[C@@H](NC(=O)[C@H](CCCCNC(=O)COCC(=O)Nc1ccc(CCC(=O)N2CCC2=O)cc1)NC(=O)[C@H](CC(=O)O)NC(=O)[C@H](CC(C)C)NC(=O)[C@H](CCC(=O)O)NC(=O)[C@H](CC(=O)O)NC(=O)[C@H](CC(C)C)NC(=O)[C@@H]1CCCN1C(=O)[C@H](CCC(N)=O)NC(=O)[C@H](Cc1ccc(O)cc1)NC(=O)[C@H](CCCCNC(C)=O)NC(=O)[C@H](CCC(N)=O)NC(C)=O)[C@@H](C)O)C(=O)N[C@@H](Cc1ccc(O)cc1)C(=O)N[C@@H](CC(=O)O)C(=O)N[C@@H](CCC(N)=O)C(=O)N[C@@H](Cc1ccccc1)C(=O)N[C@@H](CCSC)C(=O)N[C@@H](CC(C)C)C(=O)N[C@@H](CCC(N)=O)C(=O)N[C@@H](CCC(N)=O)C(=O)NCC(N)=O` [Compound 4041] (Ac-QK(Ac)YQPLDELDK(X1)T[Nva]YDQFMLQQG-NH2), the half-life came to 36 h.

Consider `CSCC[C@H](NC(=O)[C@H](Cc1ccccc1)NC(=O)[C@H](CCC(N)=O)NC(=O)[C@H](CC(=O)O)NC(=O)[C@H](Cc1ccc(O)cc1)NC(=O)[C@H](CCC(C)C)NC(=O)[C@@H](NC(=O)[C@H](CCCCNC(=O)COCC(=O)Nc1ccc(CCC(=O)N2CCC2=O)cc1)NC(=O)[C@H](CC(=O)O)NC(=O)[C@H](CC(C)C)NC(=O)[C@H](CCC(=O)O)NC(=O)[C@H](CC(=O)O)NC(=O)[C@H](CC(C)C)NC(=O)[C@@H]1CCCN1C(=O)[C@H](CCC(N)=O)NC(=O)[C@H](Cc1ccc(O)cc1)NC(=O)[C@H](CCCCNC(C)=O)NC(=O)[C@H](CCC(N)=O)NC(C)=O)[C@@H](C)O)C(=O)N[C@@H](CC(C)C)C(=O)N[C@@H](CCC(N)=O)C(=O)N[C@@H](CCC(N)=O)C(=O)NCC(N)=O` [Compound 4042], for which the half-life turned out to be 42 h.

As for `CSCC[C@H](NC(=O)[C@H](Cc1ccccc1)NC(=O)[C@H](CCC(N)=O)NC(=O)[C@H](CC(=O)O)NC(=O)[C@H](Cc1ccc(O)cc1)NC(=O)[C@H](CC(C)C)NC(=O)[C@@H](NC(=O)[C@H](CCCCNC(=O)COCC(=O)Nc1ccc(CCC(=O)N2CCC2=O)cc1)NC(=O)[C@H](CC(=O)O)NC(=O)[C@H](CC(C)C)NC(=O)[C@H](CCC(=O)O)NC(=O)[C@H](CC(=O)O)NC(=O)[C@H](CC(C)C)NC(=O)[C@@H]1CCCN1C(=O)[C@H](CCC(N)=O)NC(=O)[C@H](Cc1ccc(O)cc1)NC(=O)[C@H](CCCCNC(C)=O)NC(=O)[C@H](CCC(N)=O)NC(=O)CCOCCOCCNC(C)=O)[C@@H](C)O)C(=O)N[C@@H](CC(C)C)C(=O)N[C@@H](CCC(N)=O)C(=O)N[C@@H](CCC(N)=O)C(=O)NCC(N)=O` [Compound 4052, (Amido 2-PEG)QKacY QPL DEL DK(0P)T LYD QFMLQQ G], the half-life came out at 31 h.

Take `CSCC[C@H](NC(=O)[C@H](Cc1ccccc1)NC(=O)[C@H](CCC(N)=O)NC(=O)[C@H](CC(=O)O)NC(=O)[C@H](Cc1ccc(C(=O)O)cc1)NC(=O)[C@H](CC(C)C)NC(=O)[C@@H](NC(=O)[C@H](CCCCNC(=O)COCC(=O)Nc1ccc(CCC(=O)N2CCC2=O)cc1)NC(=O)[C@H](CC(=O)O)NC(=O)[C@H](CC(C)C)NC(=O)[C@H](CCC(=O)O)NC(=O)[C@H](CC(=O)O)NC(=O)[C@H](CC(C)C)NC(=O)[C@@H]1CCCN1C(=O)[C@H](CCC(N)=O)NC(=O)[C@H](Cc1ccc(O)cc1)NC(=O)[C@H](CC(N)=O)NC(=O)[C@H](CCC(N)=O)NC(C)=O)[C@@H](C)O)C(=O)N[C@@H](CC(C)C)C(=O)N[C@@H](CCC(N)=O)C(=O)N[C@@H](CCC(N)=O)C(=O)NCC(N)=O` [Compound 4057] (Ac-QNYQPLDELDK(X1)TL[Phe(4-COOH)]DQFMLQQG-NH2): the half-life was 11 h.

For the origin of these results see patent US8937048B2, “Anti-angiogenic compounds” (Covx Technologies Ireland, Limited, priority 2008, dated 2015).
